ChEMBL document CHEMBL1152465, “Comparative evaluation of the inhibitory activities of a series of pyrimidinedione congeners that inhibit human immunodeficiency virus types 1 and 2” (Antimicrob Agents Chemother, 2008)
Activity calls are given as the source filed them. No rule for the calls is given here.

Columns and labels:
[1] = test system: Human immunodeficiency virus 2; test: Antiviral activity against HIV2 ROD infected in human CEM-SS cells assessed as inhibition of virus-induced cytopathic effect by XTT assay; assay type: functional, organism-based, ISOLATE ROD; conditions: Human immunodeficiency virus 2, ISOLATE ROD, CEM-SS; read-out: EC50
[2] = Therapeutic index, ratio of TC50 for human CEM-SS cells to EC50 for HIV1 RF infected in human CEM-SS cells; assay type: cell-based; conditions: read-out: TI
[3] = Therapeutic index, ratio of TC50 for human CEM-SS cells to EC50 for HIV2 ROD infected in human CEM-SS cells; assay type: cell-based; conditions: CEM-SS cells, read-out: TI
[4] = target: Human immunodeficiency virus type 1 reverse transcriptase (Human immunodeficiency virus 1, UniProt Q72547); test: Inhibition of wild type HIV1 reverse transcriptase assessed as 32P-labeled GMP incorporation into nascent DNA strand
[5] = target: Human immunodeficiency virus type 1 reverse transcriptase (Human immunodeficiency virus 1, UniProt Q72547, K103N); test: Inhibition of HIV1 reverse transcriptase K103N mutant assessed as 32P-labeled GMP incorporation into nascent DNA strand
[6] = test system: Human immunodeficiency virus 1; test: Antiviral activity against HIV1 infected in human HeLa cells expressing CD4-LTR assessed as inhibition of viral entry-related beta galactosidase expression treated for 2 hrs followed by drug wash out measured after 48 hrs by MAGI assay; assay type: functional, organism-based; conditions: Human immunodeficiency virus 1, HeLa
[7] = Cytotoxicity against human HeLa cells expressing CD4-LTR by XTT assay; assay type: cell-based; conditions: read-out: TC50 (the source's name)
[8] = Therapeutic index, ratio of TC50 human HeLa cells expressing CD4-LTR to EC50 for HIV1 entry inhibition in human HeLa cells expressing CD4-LTR; assay type: cell-based; conditions: read-out: TI
[9] = test system: Human immunodeficiency virus 1; test: Antiviral activity against HIV1 infected in human CEM-SS cells assessed as inhibition of viral replication and virus-induced cytopathic effect by dose-response curve analysis; assay type: functional; conditions: Human immunodeficiency virus 1, CEM-SS
[10] = test system: Human immunodeficiency virus 2; test: Inhibition of HIV2 reverse transcriptase
[11] = test system: Human immunodeficiency virus 2; test: Antiviral activity against HIV2 assessed as inhibition of viral single round replication at early time point; assay type: functional, organism-based
[12] = test system: Human immunodeficiency virus 2; test: Antiviral activity against HIV2 assessed as inhibition of viral replication treated at time points after viral entry into host cells; assay type: functional, organism-based
[13] = test system: Human immunodeficiency virus 2; test: Inhibition of HIV2 reverse transcriptase assessed as 32P-labeled GMP incorporation into nascent DNA strand at highest concentration
[14] = test system: Human immunodeficiency virus 1; test: Antiviral activity against HIV1 RF infected in human CEM-SS cells assessed as inhibition of virus-induced cytopathic effect by XTT assay; assay type: functional, organism-based; conditions: Human immunodeficiency virus 1, RF
[15] = Cytotoxicity against human CEM-SS cells by XTT assay; assay type: cell-based; conditions: read-out: TC50 (the source's name)

| SMILES | EC50 [1] | selectivity ratio [2] | selectivity ratio [3] | IC50 [4] | IC50 [5] | EC50 [6] | CC50 [7] | selectivity ratio [8] | EC99 [9] | Activity [10] | Activity [11] | Activity [12] | Activity [13] | EC50 [14] | CC50 [15] |
| --- | --- | --- | --- | --- | --- | --- | --- | --- | --- | --- | --- | --- | --- | --- | --- |
| Cc1cc(C)cc(C(=O)c2c(C(C)C)c(=O)[nH]c(=O)n2Cc2ccccc2)c1 | 0.1 µM | 840 | 223 | 0.011 µM | 1.4 µM | 0.03 µM | 20.1 µM | 726 | 1 µM | inactive | Active | inactive | inactive | 0.027 µM | 17.8 µM |
| CCc1c(Sc2cc(C)cc(C)c2)n(CCC2C=CCC2)c(=O)[nH]c1=O (stereo not given) | 0.6 µM | 641 | 10 | 0.128 µM | > 270 µM | 0.03 µM | 6.25 µM | 192 | 1 µM | inactive | Active | inactive | inactive | 0.01 µM | 5.7 µM |
| CCc1c(Sc2cc(C)cc(C)c2)n(CC2CCCCC2)c(=O)[nH]c1=O | 26.9 µM | 534 | 2.7 | 0.152 µM | > 268 µM | 0.05 µM | 71.7 µM | 1320 | 1 µM | inactive | Active | inactive | inactive | 0.134 µM | 71.7 µM |
| CCc1c(Sc2cc(C)cc(C)c2)n(CC2CC2)c(=O)[nH]c1=O | 0.1 µM | 25500 | 62.5 | 0.018 µM | 0.257 µM | 0.009 µM | 14.4 µM | 1580 | 1 µM | inactive | Active | inactive | inactive | 0.0008 µM | 7.6 µM |
| Cc1cc(C)cc(Sc2c(C(C)C)c(=O)[nH]c(=O)n2CC2CC2)c1 | 0.5 µM | 37600 | 16.9 | 0.003 µM | 1.47 µM | 0.009 µM | 10.3 µM | 1180 | 1 µM | inactive | Active | inactive | inactive | 0.0003 µM | 7.8 µM |
| Cc1cc(C)cc(Sc2c(C(C)C)c(=O)[nH]c(=O)n2CCC2C=CCC2)c1 (stereo not given) | 4.8 µM | 1850 | 5.4 | 0.246 µM | > 260 µM | 0.009 µM | 31.9 µM | 3650 | 1 µM | inactive | Active | inactive | inactive | 0.021 µM | 25.8 µM |
| CCc1c(Oc2cc(C)cc(C)c2)n(CCC2CC=CC2)c(=O)[nH]c1=O | 1.5 µM | 4870 | > 734 | 1.14 µM | 9.8 µM | 1.95 µM | 1110 µM | 570 | 1 µM | inactive | Active | inactive | inactive | 0.23 µM | 1100 µM |
| Cc1cc(C)cc(C(=O)c2c(C)c(=O)[nH]c(=O)n2CC2CC=CC2)c1 | 29.6 µM | 14 | 2.8 | 12.7 µM | > 295 µM | 0.68 µM | 81.9 µM | 121 | 1 µM | inactive | Active | inactive | inactive | 5.91 µM | 81.9 µM |
| Cc1cc(C)cc(Oc2c(C(C)C)c(=O)[nH]c(=O)n2CCC2C=CCC2)c1 (stereo not given) | 0.4 µM | 3560 | 21.5 | 0.027 µM | 1.5 µM | 0.009 µM | 14.2 µM | 1650 | 1 µM | inactive | Active | inactive | inactive | 0.0059 µM | 7.6 µM |
| Cc1cc(C)cc(C(=O)c2c(C(C)C)c(=O)[nH]c(=O)n2CC2CCC2)c1 | 0.4 µM | 2870 | 86.4 | 0.068 µM | 1.81 µM | 0.06 µM | 34.2 µM | 606 | 1 µM | inactive | Active | inactive | inactive | 0.012 µM | 34.2 µM |
| CCc1c(C(=O)c2ccccc2)n(CC2CC=CC2)c(=O)[nH]c1=O | 30.9 µM | 1440 | 2.9 | 0.256 µM | 134 µM | 2.93 µM | 88.5 µM | 30 | 1 µM | inactive | Active | inactive | inactive | 0.0617 µM | 88.5 µM |
| CCc1c(Oc2cc(C)cc(C)c2)n(CC2CCCCC2)c(=O)[nH]c1=O | 5.1 µM | 5140 | 28.6 | 0.132 µM | 1.9 µM | 0.23 µM | 129 µM | 555 | 1 µM | inactive | Active | inactive | inactive | 0.028 µM | 114 µM |
| CCc1c(Sc2cc(C)cc(C)c2)n(CCC2CCCC2)c(=O)[nH]c1=O | 26.9 µM | 154 | 1.1 | 2.19 µM | 36.8 µM | 0.48 µM | 29 µM | 60 | 1 µM | inactive | Active | inactive | inactive | 0.18 µM | 29 µM |
| CCc1c(C(=O)c2cc(C)cc(C)c2)n(CC2CCCC2)c(=O)[nH]c1=O | 0.8 µM | 74700 | 299 | 0.169 µM | 6.9 µM | 0.25 µM | 253 µM | 996 | 1 µM | inactive | Active | inactive | inactive | 0.0034 µM | 253 µM |
| CC(C)c1c(Oc2ccccc2)n(CC2CC=CC2)c(=O)[nH]c1=O | 30.7 µM | 55200 | 37.1 | 4.91 µM | > 306 µM | 0.26 µM | 1120 µM | 4370 | 1 µM | inactive | Active | inactive | inactive | 0.02 µM | 1100 µM |
| CCc1c(Oc2cc(C)cc(C)c2)n(CCC2C=CCC2)c(=O)[nH]c1=O (stereo not given) | 0.7 µM | 570000 | > 1650 | 0.21 µM | 1.96 µM | 0.06 µM | 1110 µM | 17600 | 1 µM | inactive | Active | inactive | inactive | 0.0019 µM | 1100 µM |
| CCc1c(C(=O)c2cc(C)cc(C)c2)n(CCC2CC=CC2)c(=O)[nH]c1=O | 1.5 µM | 5660 | 8.8 | 0.018 µM | 1.9 µM | 1.25 µM | 45 µM | 36 | 1 µM | inactive | Active | inactive | inactive | 0.013 µM | 13.4 µM |
| CCc1c(Sc2cc(C)cc(C)c2)n(CCC2CC=CC2)c(=O)[nH]c1=O | 1.7 µM | 1030 | 11.4 | 0.179 µM | 141 µM | 0.09 µM | 135 µM | 1460 | 1 µM | inactive | Active | inactive | inactive | 0.0241 µM | 19.5 µM |
